What was measured:
Type in all cases: biochemical
[1] = target: T1, recombinant alpha-glucosidase II (murine full-length glucosidase II, alpha and beta subunits, Glu 2) (Mus musculus, UniProt Q8BHN3); experiment: Alpha-glucosidase II assay (4-methylumbelliferyl-alpha-D-pyranoside substrate, fluorescence); conditions: Glucosidase 2; read-out: Glu2 IC50
T1 construct: made in house; host or cells: HEK-293T cells transduced with BacMam viruses (75% alpha, 25% beta); protein harvested from culture supernatant

[2] = target: rat maltase (partially purified alpha-glucosidase from intestinal rat powder); experiment: Intestinal alpha-glucosidase assay, maltose substrate (Glucose GO Kit)
Outline: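 Enzyme from intestinal rat powder, partially purified, is exposed to compound for 60 min at 37 °C. Disaccharide substrate (maltose or sucrose respectively) then reacts 30 min at 37 °C. Heat-stopped samples are assayed for glucose, and percent inhibition versus concentration gives IC50 via 4-PL.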

[3] = target: rat sucrase (partially purified alpha-glucosidase from intestinal rat powder) (Rattus norvegicus, UniProt P23739); experiment: Intestinal alpha-glucosidase assay, sucrose substrate (Glucose GO Kit)
Outline: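 First step: 60 min, 37 °C, compound with partially purified rat intestinal alpha-glucosidase. Next, maltose or sucrose for 30 min at 37 °C, ended at 90 °C for 5 min. Glucose quantified enzymatically; concentration–inhibition data fitted 4-PL for IC50.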

[4] = target: recombinant human GAA (acid alpha-glucosidase) (Homo sapiens, UniProt P10253); experiment: Acid alpha-glucosidase (GAA) assay (4-methylumbelliferyl-alpha-D-pyranoside substrate, fluorescence)
Outline: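 IC50 from 4-PL curve fit of percent inhibition, based on fluorescence (365/440 nm) of released methylumbelliferone relative to uninhibited enzyme. Compound dilutions and human GAA incubated 60 min, 37 °C, before 20 min substrate reaction at 37 °C, quenched at pH 10.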

rat sucrase (partially purified alpha-glucosidase from intestinal rat powder), sequence (P23739 whole entry): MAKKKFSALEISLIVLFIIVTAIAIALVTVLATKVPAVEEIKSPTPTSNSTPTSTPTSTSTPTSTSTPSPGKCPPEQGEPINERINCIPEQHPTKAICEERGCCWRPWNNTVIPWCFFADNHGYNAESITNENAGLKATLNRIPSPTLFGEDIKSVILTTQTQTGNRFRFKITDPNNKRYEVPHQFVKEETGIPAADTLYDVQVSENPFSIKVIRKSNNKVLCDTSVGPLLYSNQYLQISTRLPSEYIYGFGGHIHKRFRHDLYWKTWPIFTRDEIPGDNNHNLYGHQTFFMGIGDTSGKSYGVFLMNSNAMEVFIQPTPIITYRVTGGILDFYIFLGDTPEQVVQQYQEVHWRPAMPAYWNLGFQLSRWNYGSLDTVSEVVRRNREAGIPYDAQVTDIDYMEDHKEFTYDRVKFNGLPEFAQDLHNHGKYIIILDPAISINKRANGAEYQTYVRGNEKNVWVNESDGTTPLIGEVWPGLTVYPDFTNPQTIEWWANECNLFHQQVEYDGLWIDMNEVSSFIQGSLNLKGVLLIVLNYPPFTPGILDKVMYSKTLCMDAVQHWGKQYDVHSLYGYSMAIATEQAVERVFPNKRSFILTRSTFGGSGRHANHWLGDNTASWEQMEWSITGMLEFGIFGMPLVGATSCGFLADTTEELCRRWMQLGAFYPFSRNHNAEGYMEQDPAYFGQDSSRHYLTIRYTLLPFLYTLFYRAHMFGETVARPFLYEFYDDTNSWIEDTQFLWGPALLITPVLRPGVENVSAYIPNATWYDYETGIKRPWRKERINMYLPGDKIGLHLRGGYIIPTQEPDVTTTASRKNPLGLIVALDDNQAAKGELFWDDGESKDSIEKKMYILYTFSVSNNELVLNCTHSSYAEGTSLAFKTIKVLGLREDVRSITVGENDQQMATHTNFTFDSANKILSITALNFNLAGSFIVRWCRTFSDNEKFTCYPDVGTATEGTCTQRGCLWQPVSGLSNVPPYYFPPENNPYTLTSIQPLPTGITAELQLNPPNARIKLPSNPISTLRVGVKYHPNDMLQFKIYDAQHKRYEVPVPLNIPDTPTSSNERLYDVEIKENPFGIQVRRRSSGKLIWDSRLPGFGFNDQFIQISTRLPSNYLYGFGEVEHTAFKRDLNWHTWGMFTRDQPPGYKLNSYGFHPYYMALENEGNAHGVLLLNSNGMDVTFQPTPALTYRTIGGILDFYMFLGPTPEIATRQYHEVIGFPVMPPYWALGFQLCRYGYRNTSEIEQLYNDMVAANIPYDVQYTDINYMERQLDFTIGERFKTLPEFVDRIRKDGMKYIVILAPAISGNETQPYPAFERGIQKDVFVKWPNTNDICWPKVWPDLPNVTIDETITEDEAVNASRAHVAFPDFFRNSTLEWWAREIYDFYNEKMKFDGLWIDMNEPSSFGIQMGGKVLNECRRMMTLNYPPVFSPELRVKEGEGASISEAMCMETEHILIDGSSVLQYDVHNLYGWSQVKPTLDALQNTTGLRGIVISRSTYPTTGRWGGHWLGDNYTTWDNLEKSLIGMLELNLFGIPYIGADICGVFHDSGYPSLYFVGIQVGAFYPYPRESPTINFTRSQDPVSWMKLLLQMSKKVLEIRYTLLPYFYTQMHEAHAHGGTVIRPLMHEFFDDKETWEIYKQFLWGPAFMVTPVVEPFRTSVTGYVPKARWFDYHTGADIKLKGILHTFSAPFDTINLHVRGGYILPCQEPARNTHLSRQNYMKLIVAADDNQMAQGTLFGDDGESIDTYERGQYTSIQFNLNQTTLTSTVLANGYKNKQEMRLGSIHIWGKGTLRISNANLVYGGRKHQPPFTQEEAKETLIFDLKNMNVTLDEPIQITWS
T1 sequence (O08795 15-521): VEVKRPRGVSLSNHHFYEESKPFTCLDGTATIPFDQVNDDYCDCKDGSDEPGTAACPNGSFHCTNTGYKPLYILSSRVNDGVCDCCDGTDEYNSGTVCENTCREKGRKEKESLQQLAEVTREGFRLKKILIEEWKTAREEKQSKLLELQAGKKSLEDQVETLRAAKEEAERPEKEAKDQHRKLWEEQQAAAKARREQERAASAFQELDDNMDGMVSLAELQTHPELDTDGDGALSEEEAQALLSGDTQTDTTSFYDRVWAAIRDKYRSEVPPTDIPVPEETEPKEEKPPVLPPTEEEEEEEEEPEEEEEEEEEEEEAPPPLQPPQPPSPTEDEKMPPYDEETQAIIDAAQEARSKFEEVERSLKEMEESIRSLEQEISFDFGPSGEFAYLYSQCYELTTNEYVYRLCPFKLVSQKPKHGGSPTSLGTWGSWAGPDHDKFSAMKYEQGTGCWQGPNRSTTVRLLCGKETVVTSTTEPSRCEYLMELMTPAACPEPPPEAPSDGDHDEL
T1 sequence (Q8BHN3 33-944): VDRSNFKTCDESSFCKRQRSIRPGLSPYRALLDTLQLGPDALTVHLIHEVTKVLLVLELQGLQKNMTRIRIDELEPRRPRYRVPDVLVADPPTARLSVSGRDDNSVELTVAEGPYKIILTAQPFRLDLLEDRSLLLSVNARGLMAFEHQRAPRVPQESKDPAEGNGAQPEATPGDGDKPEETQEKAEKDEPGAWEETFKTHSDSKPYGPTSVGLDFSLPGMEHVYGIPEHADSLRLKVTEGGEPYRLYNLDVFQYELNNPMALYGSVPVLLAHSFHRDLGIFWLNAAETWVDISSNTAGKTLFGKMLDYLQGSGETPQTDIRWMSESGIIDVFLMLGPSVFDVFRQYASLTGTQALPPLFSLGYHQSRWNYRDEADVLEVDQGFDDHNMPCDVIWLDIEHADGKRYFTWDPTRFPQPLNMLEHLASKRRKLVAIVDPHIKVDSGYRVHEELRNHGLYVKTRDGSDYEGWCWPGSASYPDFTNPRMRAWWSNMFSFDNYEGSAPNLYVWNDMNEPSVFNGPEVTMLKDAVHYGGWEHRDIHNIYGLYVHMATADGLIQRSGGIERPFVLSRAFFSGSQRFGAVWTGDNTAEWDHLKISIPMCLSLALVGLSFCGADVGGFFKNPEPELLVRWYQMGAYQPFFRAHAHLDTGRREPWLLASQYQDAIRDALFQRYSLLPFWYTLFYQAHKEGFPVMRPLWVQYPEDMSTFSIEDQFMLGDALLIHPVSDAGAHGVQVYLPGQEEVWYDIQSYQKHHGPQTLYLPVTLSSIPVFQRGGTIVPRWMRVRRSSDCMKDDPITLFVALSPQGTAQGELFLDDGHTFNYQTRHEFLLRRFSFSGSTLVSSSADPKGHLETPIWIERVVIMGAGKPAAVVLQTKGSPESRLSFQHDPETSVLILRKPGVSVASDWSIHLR

Cc1cc(NCc2cnc(CN3C[C@H](O)[C@@H](O)[C@H](O)[C@H]3CO)cn2)cc(-c2ccc[nH]2)c1 [Compound 1330, (2R,3R,4R,5S)-2-(hydroxymethyl)-1-{[5-({[3-methyl-5-(1H-pyrrol-2-yl)phenyl]amino}methyl)pyrazin-2-yl]methyl}piperidine-3,4,5-triol]
IC50 [1]: 14400 nM
IC50 [2]: 577 nM
IC50 [3]: 595 nM
IC50 [4]: 90 nM

[N-]=[N+]=Nc1ccc(NCCc2ccccc2CCN2C[C@H](O)[C@@H](O)[C@H](O)[C@H]2CO)c([N+](=O)[O-])c1 [Compound 1249]
IC50 [1]: 162 nM
IC50 [2]: 3490 nM
IC50 [3]: 1870 nM
IC50 [4]: 1920 nM

NC(=O)CCN(CCNc1ccc(-c2ncccn2)cc1[N+](=O)[O-])CCN1C[C@H](O)[C@@H](O)[C@H](O)[C@H]1CO [Compound 1226, 3-[(2-{[2-nitro-4-(pyrimidin-2-yl)phenyl]amino}ethyl)({2-[(2R,3R,4R,5S)-3,4,5-trihydroxy-2-(hydroxymethyl)piperidin-1-yl]ethyl})amino]propanamide]
IC50 [1]: 1350 nM
IC50 [2]: 4630 nM
IC50 [3]: 793 nM
IC50 [4]: 20900 nM

Cc1cc(NCc2cccc(CN3C[C@H](O)[C@@H](O)[C@H](O)[C@H]3CO)c2)cc(-c2cccnn2)c1 [Compound 1034, (2R,3R,4R,5S)-2-(hydroxymethyl)-1-{[3-({[3-methyl-5-(pyridazin-3-yl)phenyl]amino}methyl)phenyl]methyl}piperidine-3,4,5-triol]
IC50 [1]: 10000 nM
IC50 [2]: 33 nM
IC50 [3]: 57 nM
IC50 [4]: 2710 nM

COc1cc(NCCCCCCN2C[C@H](O)[C@@H](O)[C@H](O)[C@H]2CO)cc(-c2ncc[nH]2)c1 [Compound 1219, (2R,3R,4R,5S)-2-(hydroxymethyl)-1-(6-{[3-(1H-imidazol-2-yl)-5-methoxyphenyl]amino}hexyl)piperidine-3,4,5-triol]
IC50 [1]: 18 nM
IC50 [2]: 10 nM
IC50 [3]: 64 nM
IC50 [4]: 89 nM

COc1ccc(-c2ccc(CCCN3C[C@H](O)[C@@H](O)[C@H](O)[C@H]3CO)cc2)cc1 [Compound 1305, (2R,3R,4R,5S)-2-(hydroxymethyl)-1-(3-{4′-methoxy-[1,1′-biphenyl]-4-yl}propyl)piperidine-3,4,5-triol]
IC50 [1]: < 1 nM
IC50 [2]: < 10 nM
IC50 [3]: 1010 nM
IC50 [4]: 498 nM

Cc1cc(NCc2cccc(CN3C[C@H](O)[C@@H](O)[C@H](O)[C@H]3CO)c2)cc(C2=COCCO2)c1 [Compound 1032, (2R,3R,4R,5S)-1-{[3-({[3-(5,6-dihydro-1,4-dioxin-2-yl)-5-methylphenyl]amino}methyl)phenyl]methyl}-2-(hydroxymethyl)piperidine-3,4,5-triol]
IC50 [1]: 47700 nM
IC50 [2]: 73 nM
IC50 [3]: 36 nM
IC50 [4]: 4170 nM

[N-]=[N+]=Nc1ccc(NCCCCCCN2C[C@H](O)[C@@H](O)[C@H](O)[C@H]2CO)c(C(=O)O)c1 [Compound 1297, 5-azido-2-({6-[(2R,3R,4R,5S)-3,4,5-trihydroxy-2-(hydroxymethyl)piperidin-1-yl]hexyl}amino)benzoic acid]
IC50 [1]: 97 nM
IC50 [2]: 169 nM
IC50 [3]: 800 nM
IC50 [4]: 452 nM

O=[N+]([O-])c1cc(Br)ccc1NCc1cccc(CN2C[C@H](O)[C@@H](O)[C@H](O)[C@H]2CO)c1 [Compound 1029, (2R,3R,4R,5S)-1-[(3-{[(4-bromo-2-nitrophenyl)-amino]methyl}phenyl)methyl]-2-(hydroxymethyl)piperidine-3,4,5-triol]
IC50 [1]: 20400 nM
IC50 [2]: 10 nM
IC50 [3]: < 1 nM
IC50 [4]: 1330 nM

[N-]=[N+]=Nc1ccc(NCCc2cccc(CCN3C[C@H](O)[C@@H](O)[C@H](O)[C@H]3CO)c2)c([N+](=O)[O-])c1 [Compound 1240, (2R,3R,4R,5S)-1-[2-(3-{2-[(4-azido-2-nitrophenyl)amino]ethyl}phenyl)ethyl]-2-(hydroxymethyl)piperidine-3,4,5-triol]
IC50 [1]: 45 nM
IC50 [2]: 701 nM
IC50 [3]: 318 nM
IC50 [4]: 12800 nM

N#Cc1ccc(F)cc1NCCCCCCN1C[C@H](O)[C@@H](O)[C@H](O)[C@H]1CO [Compound 1251, 4-fluoro-2-({6-[(2R,3R,4R,5S)-3,4,5-trihydroxy-2-(hydroxymethyl)piperidin-1-yl]hexyl}amino)benzonitrile]
IC50 [1]: 12 nM
IC50 [2]: 4 nM
IC50 [3]: 38 nM
IC50 [4]: 41 nM

COCCc1ccc(CCCN2C[C@H](O)[C@@H](O)[C@H](O)[C@H]2CO)cc1 [Compound 1308, (2R,3R,4R,5S)-2-(hydroxymethyl)-1-{3-[4-(2-methoxyethyl)phenyl]propyl}piperidine-3,4,5-triol]
IC50 [1]: 125 nM
IC50 [2]: 88 nM
IC50 [3]: 331 nM
IC50 [4]: 1680 nM

OC[C@@H]1[C@@H](O)[C@H](O)[C@@H](O)CN1CCCCCCNc1ccc(-c2ncccn2)cc1Cl [Compound 1228, (2R,3R,4R,5S)-1-(6-{[2-chloro-4-(pyrimidin-2-yl)phenyl]amino}hexyl)-2-(hydroxymethyl)piperidine-3,4,5-triol]
IC50 [1]: 11 nM
IC50 [2]: 1 nM
IC50 [3]: 61 nM
IC50 [4]: 68 nM

[N-]=[N+]=Nc1ccc(NCCOC(=O)NCCN2C[C@H](O)[C@@H](O)[C@H](O)[C@H]2CO)c([N+](=O)[O-])c1 [Compound 1268, 2-[(4-azido-2-nitrophenyl)amino]ethyl N-{2-[(2R,3R,4R,5S)-3,4,5-trihydroxy-2-(hydroxymethyl)piperidin-1-yl]ethyl}carbamate]
IC50 [1]: 32 nM
IC50 [2]: 68 nM
IC50 [3]: 363 nM
IC50 [4]: 617 nM

[N-]=[N+]=Nc1ccc(NCCn2cc(CCN3C[C@H](O)[C@@H](O)[C@H](O)[C@H]3CO)nn2)c([N+](=O)[O-])c1 [Compound 1272, (2R,3R,4R,5S)-1-[2-(1-{2-[(4-azido-2-nitrophenyl)amino]ethyl}-1H-1,2,3-triazol-4-yl)ethyl]-2-(hydroxymethyl)piperidine-3,4,5-triol]
IC50 [1]: 39 nM
IC50 [2]: 239 nM
IC50 [3]: 1880 nM
IC50 [4]: 800 nM

[N-]=[N+]=Nc1ccc(NCCN2CCN(CCN3C[C@H](O)[C@@H](O)[C@H](O)[C@H]3CO)CC2)c([N+](=O)[O-])c1 [Compound 1273, (2R,3R,4R,5S)-1-[2-(4-{2-[(4-azido-2-nitrophenyl)amino]ethyl}piperazin-1-yl)ethyl]-2-(hydroxymethyl)piperidine-3,4,5-triol]
IC50 [1]: 548 nM
IC50 [2]: 646 nM
IC50 [3]: 21600 nM
IC50 [4]: 15600 nM

NS(=O)(=O)c1cc(-c2ncccn2)ccc1NCCCCCCN1C[C@H](O)[C@@H](O)[C@H](O)[C@H]1CO [Compound 1265, 5-(pyrimidin-2-yl)-2-({6-[(2R,3R,4R,5S)-3,4,5-trihydroxy-2-(hydroxymethyl)piperidin-1-yl]hexyl}amino)benzene-1-sulfonamide]
IC50 [1]: 12 nM
IC50 [2]: 5 nM
IC50 [3]: 98 nM
IC50 [4]: 35 nM

[N-]=[N+]=Nc1ccc(NCCN(CCC(N)=O)CCN2C[C@H](O)[C@@H](O)[C@H](O)[C@H]2CO)c([N+](=O)[O-])c1 [Compound 1235]
IC50 [1]: 530 nM
IC50 [2]: 7160 nM
IC50 [3]: 8650 nM
IC50 [4]: 37800 nM

Cc1cc(Br)cc(NCc2cccc(CN3C[C@H](O)[C@@H](O)[C@H](O)[C@H]3CO)c2)c1 [Compound 1021, (2R,3R,4R,5S)-1-[(3-{[(3-bromo-5-methylphenyl)amino]methyl}phenyl)methyl]-2-(hydroxymethyl)piperidine-3,4,5-triol]
IC50 [1]: 35000 nM
IC50 [2]: 8 nM
IC50 [3]: 1 nM
IC50 [4]: 2090 nM

Nc1ccc(NCCn2cc(CCN3C[C@H](O)[C@@H](O)[C@H](O)[C@H]3CO)nn2)c([N+](=O)[O-])c1Cl [Compound 1253, (2R,3R,4R,5S)-1-[2-(1-{2-[(4-amino-3-chloro-2-nitrophenyl)amino]ethyl}-1H-1,2,3-triazol-4-yl)ethyl]-2-(hydroxymethyl)piperidine-3,4,5-triol]
IC50 [1]: 225 nM
IC50 [2]: 777 nM
IC50 [3]: 3440 nM
IC50 [4]: 664 nM

OC[C@@H]1[C@@H](O)[C@H](O)[C@@H](O)CN1Cc1ccc(CNc2ccc(Br)cc2)cc1 [Compound 1028, (2R,3R,4R,5S)-1-[(4-{[(4-bromophenyl)amino]methyl}phenyl)methyl]-2-(hydroxymethyl)piperidine-3,4,5-triol]
IC50 [1]: 827 nM
IC50 [2]: 11 nM
IC50 [3]: 11 nM
IC50 [4]: 666 nM

[N-]=[N+]=Nc1ccc(NCCS(=O)(=O)CCCN2C[C@H](O)[C@@H](O)[C@H](O)[C@H]2CO)c([N+](=O)[O-])c1 [Compound 1274, (2R,3R,4R,5S)-1-(3-{2-[(4-azido-2-nitrophenyl)amino]ethane-sulfonyl}propyl)-2-(hydroxymethyl)piperidine-3,4,5-triol]
IC50 [1]: 48 nM
IC50 [2]: 151 nM
IC50 [3]: 738 nM
IC50 [4]: 136 nM

N#Cc1cc(-c2ncccn2)ccc1NCCCCCCN1C[C@H](O)[C@@H](O)[C@H](O)[C@H]1CO [Compound 1256, 5-(pyrimidin-2-yl)-2-({6-[(2R,3R,4R,5S)-3,4,5-trihydroxy-2-(hydroxymethyl)piperidin-1-yl]hexyl}amino)benzonitrile]
IC50 [1]: 6 nM
IC50 [2]: 10 nM
IC50 [3]: 88 nM
IC50 [4]: 33 nM
